# Reference: US10450301B2, “Apoptosis signal-regulating kinase 1 inhibitors and methods of use thereof” (ENANTA PHARMACEUTICALS, INC., priority 2017, dated 2019)
# Target: ASK1 (Homo sapiens (Human), UniProt Q99683)
# Assay: HTRF KinEASE Assay (TR-FRET, STK3 peptide substrate), inhibition of ASK1
# Type: biochemical
# Settings: 5 nM ASK1 kinase, 1 μM STK3 peptide substrate, 100 μM ATP, 3 hours; compound 0 to 10 μM
# Description: Assay HTRF® KinEASE™ Assay
# ASK1 was purchased from Thermofisher (Catalogue # PV4011), ATP was purchased from Sigma (Catalogue # A7699), HI-TRF® KinEASE™ Assay System was obtained from Cisbio (Bedford, Mass.). […] HTRF® KinEASE™-STK is a generic method for measuring serine/threonine kinase activities using a time-resolved fluorescence resonance energy transfer (TR-FRET) immunoassay. […] 100 Um ATP is added to start kinase reaction and incubated for 3 hours. The STK3-antibody labeled with Eu^3+-Cryptate and 125 Nm streptavidin-XL665 are mixed in a single addition with stop reagents provided by the Cisbio kit used to stop the kinase reaction. […] The resulting TR-FRET is proportional to the phosphorylation level. Staurosporine was used as the positive control. IC50 was determined by Xlfit 5.3.
# By using above method, the inhibition of ASK1 was evaluated for the compounds of Formula (I).
# Sequence of ASK1 (Q99683 whole entry): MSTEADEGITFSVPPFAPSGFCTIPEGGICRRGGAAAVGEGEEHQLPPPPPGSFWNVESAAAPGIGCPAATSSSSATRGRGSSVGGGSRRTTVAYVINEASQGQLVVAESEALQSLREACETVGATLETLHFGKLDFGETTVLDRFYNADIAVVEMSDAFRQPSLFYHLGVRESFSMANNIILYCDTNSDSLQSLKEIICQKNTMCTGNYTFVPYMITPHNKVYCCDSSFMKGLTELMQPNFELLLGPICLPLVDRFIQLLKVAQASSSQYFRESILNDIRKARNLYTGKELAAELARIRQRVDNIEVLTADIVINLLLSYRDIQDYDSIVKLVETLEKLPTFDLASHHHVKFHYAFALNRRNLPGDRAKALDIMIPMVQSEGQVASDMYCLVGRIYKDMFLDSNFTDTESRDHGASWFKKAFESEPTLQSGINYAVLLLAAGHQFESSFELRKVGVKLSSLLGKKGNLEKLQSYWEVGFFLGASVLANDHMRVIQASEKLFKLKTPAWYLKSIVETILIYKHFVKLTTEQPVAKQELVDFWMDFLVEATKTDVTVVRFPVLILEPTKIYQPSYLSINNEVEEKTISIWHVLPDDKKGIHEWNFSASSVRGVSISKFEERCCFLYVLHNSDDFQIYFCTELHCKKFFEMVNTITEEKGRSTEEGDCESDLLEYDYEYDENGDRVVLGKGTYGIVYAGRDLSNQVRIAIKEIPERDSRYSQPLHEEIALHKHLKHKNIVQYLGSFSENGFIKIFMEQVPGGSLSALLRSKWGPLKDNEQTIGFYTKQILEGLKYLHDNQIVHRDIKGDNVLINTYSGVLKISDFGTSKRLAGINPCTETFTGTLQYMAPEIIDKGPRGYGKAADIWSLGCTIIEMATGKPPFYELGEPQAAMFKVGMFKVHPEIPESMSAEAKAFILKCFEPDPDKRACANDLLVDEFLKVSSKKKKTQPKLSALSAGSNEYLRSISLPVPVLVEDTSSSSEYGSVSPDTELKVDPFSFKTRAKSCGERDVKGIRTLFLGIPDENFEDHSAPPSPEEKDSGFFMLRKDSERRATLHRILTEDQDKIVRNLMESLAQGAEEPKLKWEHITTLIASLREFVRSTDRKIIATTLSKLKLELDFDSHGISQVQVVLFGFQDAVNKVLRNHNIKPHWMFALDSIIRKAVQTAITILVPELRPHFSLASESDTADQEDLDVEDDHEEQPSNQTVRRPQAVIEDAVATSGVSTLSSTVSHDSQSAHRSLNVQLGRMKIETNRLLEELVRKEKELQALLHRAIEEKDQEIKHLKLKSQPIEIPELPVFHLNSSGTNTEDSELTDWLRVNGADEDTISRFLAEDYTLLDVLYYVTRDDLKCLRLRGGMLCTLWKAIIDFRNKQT
row,Compound,IC50 [nM]
1,"2-(N,N-dimethylsulfamoyl)-N-(6-(4-isopropyl-4H-1,2,4-triazol-3-yl)pyridin-2-yl)isoindoline-5-carboxamide [Example 10]",> 1000
2,CC(C)n1nnnc1-c1cccc(NC(=O)c2ccc3c(c2)CN(C(=O)N(C)C)C3)n1 [Example 12],100 to 1000
3,CC(C)N1Cc2cc(F)c(C(=O)Nc3cccc(-c4nnnn4C(C)C)n3)cc2C1=O [Example 176],> 1000
4,CCNC(=O)N1CCc2cnc(C(=O)Nc3cccc(-c4nnnn4[C@H](C)CO)n3)cc2C1 [Example 170],1 to 10
5,CCCCNC(=O)N1CCc2ccc(C(=O)Nc3cccc(-c4nncn4C(C)C)n3)cc2C1 [Example 62],1 to 10
6,"CC(C)n1cnnc1-c1cccc(NC(=O)c2ccc3c(c2)CNCC3)n1 [Example 37, N-(6-(4-isopropyl-4H-1,2,4-triazol-3-yl)pyridin-2-yl)-1,2,3,4-tetrahydroisoquinoline-7-carboxamide]",100 to 1000
7,C[C@H](CO)n1nnnc1-c1cccc(NC(=O)c2cc3c(cc2F)CCN(S(=O)(=O)CCC(F)(F)F)C3)n1 [Example 82],1 to 10
8,CC(=O)OC[C@@H](C)n1nnnc1-c1cccc(NC(=O)c2cc3c(cc2F)CCN(C(=O)N2CCCC2)C3)n1 [Example 73],> 1000
9,CC(C)CS(=O)(=O)N1CCc2cc(F)c(C(=O)Nc3cccc(-c4nncn4C(C)C)n3)cc2C1 [Example 42],1 to 10
10,"CCNC(=O)N1CCc2cc(F)c(C(=O)Nc3cccc(-c4nnnn4C(C)C)n3)cc2C1 [Example 29, N2-ethyl-6-fluoro-N7-(6-(1-isopropyl-1H-tetrazol-5-yl)pyridin-2-yl)-3,4-dihydroisoquinoline-2,7(1H)-dicarboxamide]",1 to 10
11,CC(C)n1nnnc1-c1cccc(NC(=O)c2cc3c(cc2F)CCN(C(=O)N(C)C)C3)n1 [Example 96],10 to 100
12,COC(=O)N1CCc2cnc(C(=O)Nc3cccc(-c4nnnn4[C@H](C)CO)n3)cc2C1 [Example 128],1 to 10
13,CC(C)n1cnnc1-c1cccc(NC(=O)c2ccc3c(c2)CN(C(=O)N2CCCC2)C3)n1 [Example 17],10 to 100
14,CCN(C)C(=O)N1CCc2cc(F)c(C(=O)Nc3cccc(-c4nncn4C(C)C)n3)cc2C1 [Example 45],1 to 10
15,COCCC(=O)N1CCc2ccc(C(=O)Nc3cccc(-c4nncn4C(C)C)n3)cc2C1 [Example 60],10 to 100
16,"COCCC(=O)N1CCc2cc(F)c(C(=O)Nc3cccc(-c4nncn4C(C)C)n3)cc2C1 [Example 24, 6-fluoro-N-(6-(4-isopropyl-4H-1,2,4-triazol-3-yl)pyridin-2-yl)-2-(3-methoxypropanoyl)-1,2,3,4-tetrahydroisoquinoline-7-carboxamide]",1 to 10
17,"CC1c2cc(C(=O)Nc3cccc(-c4nnnn4C(C)C)n3)c(F)cc2CCN1C(=O)OCc1ccccc1 (centres unmarked) [Example 74, benzyl 6-fluoro-7-((6-(1-isopropyl-1H-tetrazol-5-yl)pyridin-2-yl)carbamoyl)-1-methyl-3,4-dihydroisoquinoline-2(1H)-carboxylate]",100 to 1000
18,"C[C@H](CO)n1nnnc1-c1cccc(NC(=O)c2cc3c(cn2)CCN(C(=O)N2[C@@H]4CCC[C@H]2CC4)C3)n1 [Example 182, 6-((1R,5 S)-8-azabicyclo[3.2.1]octane-8-carbonyl)-N-(6-(1-((R)-1-hydroxypropan-2-yl)-1H-tetrazol-5-yl)pyridin-2-yl)-5,6,7,8-tetrahydro-2,6-naphthyridine-3-carboxamide]",1 to 10
19,CC(C)n1cnnc1-c1cccc(NC(=O)c2cc3c(cc2F)CCN(C(=O)N2CCOCC2)C3)n1 [Example 50],10 to 100
20,C=CCCOC(=O)N1CCc2ccc(C(=O)Nc3cccc(-c4nncn4C(C)C)n3)cc2C1 [Example 64],10 to 100
21,CC(C)n1nnnc1-c1cccc(NC(=O)c2cc3c(cn2)CCN(C(=O)N(C)C2CCCC2)C3)n1 [Example 112],10 to 100
22,CCN(C)C(=O)N1CCc2cc(F)c(C(=O)Nc3cccc(-n4nnnc4C(C)C)n3)cc2C1 [Example 101],> 1000

# Continued, values first:
row,IC50 [nM],Compound
1,1 to 10,CC(C)n1cnnc1-c1cccc(NC(=O)c2cc3c(cc2F)CCN(S(=O)(=O)C2CCCC2)C3)n1 [Example 21]
2,1 to 10,C[C@H](CO)n1nnnc1-c1cccc(NC(=O)c2cc3c(cn2)CCN(C(=O)NCc2ccccc2)C3)n1 [Example 129]
3,100 to 1000,COCCS(=O)(=O)N1Cc2ccc(C(=O)Nc3cccc(-c4nncn4C(C)C)n3)cc2C1 [Example 6]
4,10 to 100,CCOC(=O)N1CCc2cc(F)c(C(=O)Nc3cccc(-c4nnnn4C(C)C)n3)cc2C1 [Example 30]
5,100 to 1000,"CC(C)N1Cc2ccc(C(=O)Nc3cccc(-c4nnnn4C(C)C)n3)cc2C1=O [Example 1, 2-isopropyl-N-(6-(1-isopropyl-1H-tetrazol-5-yl)pyridin-2-yl)-3-oxoisoindoline-5-carboxamide]"
6,10 to 100,CC(C)N(C)C(=O)N1CCc2cc(F)c(C(=O)Nc3cccc(-c4nnnn4C(C)C)n3)cc2C1 [Example 80]
7,1 to 10,C[C@H](CO)n1nnnc1-c1cccc(NC(=O)c2cc3c(cn2)CCN(C(=O)C(C)(C)C)C3)n1 [Example 152]
8,1 to 10,C[C@H](CO)n1nnnc1-c1cccc(NC(=O)c2cc3c(cn2)CCN(C(=O)c2ccc(F)cc2)C3)n1 [Example 121]
9,1 to 10,C[C@H](CO)n1nnnc1-c1cccc(NC(=O)c2cc3c(cn2)CCN(S(=O)(=O)c2ccccc2)C3)n1 [Example 120]
10,1 to 10,"CC(C)n1cnnc1-c1cccc(NC(=O)c2cc3c(cc2F)CCN(S(=O)(=O)NC2CC2)C3)n1 [Example 20, 2-(N-cyclopropylsulfamoyl)-6-fluoro-N-(6-(4-isopropyl-4H-1,2,4-triazol-3-yl)pyridin-2-yl)-1,2,3,4-tetrahydroisoquinoline-7-carboxamide]"
11,1 to 10,C[C@H](CO)n1nnnc1-c1cccc(NC(=O)c2cc3c(cn2)CCN(S(=O)(=O)N(C)C)C3)n1 [Example 166]
12,100 to 1000,"C=CCN1CCc2ccc(C(=O)Nc3cccc(-c4nncn4C(C)C)n3)cc2C1 [Example 39, 2-allyl-N-(6-(4-isopropyl-4H-1,2,4-triazol-3-yl)pyridin-2-yl)-1,2,3,4-tetrahydroisoquinoline-7-carboxamide]"
13,10 to 100,CC(C)n1nnnc1-c1cccc(NC(=O)c2cc3c(cc2F)CCN(C(=O)N(C)CC(F)(F)F)C3)n1 [Example 77]
14,> 1000,"CC(C)N1Cc2cc(F)c(C(=O)Nc3cccc(-c4nncn4C(C)C)n3)cc2C1=O [Example 177, 6-fluoro-2-isopropyl-N-(6-(4-isopropyl-4H-1,2,4-triazol-3-yl)pyridin-2-yl)-3-oxoisoindoline-5-carboxamide]"
15,1 to 10,CC(C)n1nnnc1-c1cccc(NC(=O)c2cc3c(cn2)CCN(C(=O)C2CCCC2)C3)n1 [Example 119]
16,10 to 100,CC(C)n1nnnc1-c1cccc(NC(=O)c2cc3c(cc2F)CCN(S(=O)(=O)CC2CC(F)(F)C2)C3)n1 [Example 102]

row,IC50 [nM],Compound
1,10 to 100,CC(C)n1nnnc1-c1cccc(NC(=O)c2cc3c(cc2F)CCN(C(=O)N2CCOCC2)C3)n1 [Example 92]
2,10 to 100,CC(C)n1nnnc1-c1cccc(NC(=O)c2cc3c(cc2F)CCN(C(=O)N2CCS(=O)(=O)CC2)C3)n1 [Example 104]
3,10 to 100,CC(C)n1nnnc1-c1cccc(NC(=O)c2cc3c(cc2F)CCN(C(=O)NC2CCCC2)C3)n1 [Example 56]
4,1 to 10,C[C@H](CO)n1nnnc1-c1cccc(NC(=O)c2cc3c(cn2)CN(C(=O)OCc2ccccc2)C3)n1 [Example 178]
5,1 to 10,COCCS(=O)(=O)N1CCc2cc(F)c(C(=O)Nc3cccc(-c4nncn4C(C)C)n3)cc2C1 [Example 23]
6,100 to 1000,COc1cc2c(cc1C(=O)Nc1cccc(-c3nnnn3C(C)C)n1)C(=O)N(C(C)C)C2 [Example 174]
7,100 to 1000,CC(C)c1nnnn1-c1cccc(NC(=O)c2cc3c(cc2F)CCN(C(=O)N(C)CCC(F)(F)F)C3)n1 [Example 99]
8,1 to 10,C[C@H](CO)n1nnnc1-c1cccc(NC(=O)c2cc3c(cn2)CCN(C(=O)OCC(C)(C)C)C3)n1 [Example 159]
9,1 to 10,CC(C)n1nnnc1-c1cccc(NC(=O)c2cc3c(cn2)CCN(S(=O)(=O)CCC(F)(F)F)C3)n1 [Example 172]
10,1 to 10,CCNC(=O)N1CCc2cc(F)c(C(=O)Nc3cccc(-c4nncn4C(C)C)n3)cc2C1 [Example 52]
11,1 to 10,CC(C)NC(=O)N1CCc2cnc(C(=O)Nc3cccc(-c4nnnn4[C@H](C)CO)n3)cc2C1 [Example 132]
12,10 to 100,"CC(C)N1Cc2cnc(C(=O)Nc3cccc(-c4nnnn4[C@H](C)CO)n3)cc2C1=O [Example 18, (R)—N-(6-(1-(1-hydroxypropan-2-yl)-1H-tetrazol-5-yl)pyridin-2-yl)-2-isopropyl-1-oxo-2,3-dihydro-1H-pyrrolo[3,4-c]pyridine-6-carboxamide]"
13,1 to 10,"C[C@H](CO)n1nnnc1-c1cccc(NC(=O)c2cc3c(cn2)CCN(C(=O)OC(C)(C)C)C3)n1 [Example 143, tert-butyl (R)-7-((6-(1-(1-hydroxypropan-2-yl)-1H-tetrazol-5-yl)pyridin-2-yl)carbamoyl)-3,4-dihydro-2,6-naphthyridine-2(1H)-carboxylate]"
14,10 to 100,"CC(C)n1nnnc1-c1cccc(NC(=O)c2cc3c(cn2)CCN(C(=O)OC(C)(C)C)C3)n1 [Example 153, tert-butyl 7-((6-(1-isopropyl-1H-tetrazol-5-yl)pyridin-2-yl)carbamoyl)-3,4-dihydro-2,6-naphthyridine-2(1H)-carboxylate]"
15,10 to 100,CC(C)CS(=O)(=O)N1CCc2cc(F)c(C(=O)Nc3cccc(-c4nnnn4C(C)C)n3)cc2C1 [Example 86]
